Experimental data published in paper PMC9267128, “New 2-[(4-Amino-6-N-substituted-1,3,5-triazin-2-yl)methylthio]-N-(imidazolidin-2-ylidene)-4-chloro-5-methylbenzenesulfonamide Derivatives, Design, Synthesis and Anticancer Evaluation” (International Journal of Molecular Sciences, 2022).
“Also recorded” adds a separate entry of the source.

What was measured:
[1] = tested on: SKOV3 (ovarian carcinoma cell line); experiment: MTT assay, mutant p53 ovarian cancer cells SKOV-3; format: cell-based
Experimental: (§1) Thus, the ability of the selected compounds to exert cytotoxic activity toward cell lines harboring mutant p53 was examined. Compounds displaying a high selectivity index (Table 6) were selected for the analysis of their activity toward ovarian and breast cancer cells with wild-type p53 (A2780, MCF-7) and mutant p53 (SKOV-3, T47D).
(§2) Cell viability was examined using the MTT [3-(4,5-dimethylthiazol-2-yl)-2,5-diphenyltetrazolium bromide] assay. Cells were seeded in 96-well plates at a density of 3 × 10^3 cells/well and treated for 72 h with the tested compounds in the concentration range of 1–100 µM. Then, MTT (0.5 mg/mL) was added to the medium and cells were further incubated for 2 h at 37 °C. In the next stage, cells were lysed with DMSO and the absorbance of the formazan solution was measured at 550 nm with a plate reader (1420 multilabel counter, Victor, Jügesheim, Germany). The experiment was performed in triplicate. Values are expressed as the mean ± SD of at least three independent experiments. Cisplatin was used as a positive control.
(§3) Compounds 48, 62, 134, 138 and 140 were further examined toward MCF7 (breast cancer cell line, ATCC, HTB-22), T47D (breast cancer cell line, DSMZ ACC 739), A2780 (ovarian carcinoma cell line, ECACC, 93112519), and SKOV3 (ovarian carcinoma cell line, ATCC, HTB-77) cells. Cells were grown in Dulbecco’s Modified Eagle Medium (DMEM) supplemented with 10% fetal bovine serum (Thermo Fisher Scientific).

[2] = tested on: T47D (breast cancer cell line); experiment: MTT assay, mutant p53 breast cancer cells T47D; format: cell-based; settings: 72 h of incubation
Experimental: as §1, §2, §3

[3] = tested on: MCF7 (breast cancer cell line, ATCC, HTB-22); experiment: MTT assay, wild-type p53 breast cancer cells MCF-7 (Table 11); format: cell-based, human; settings: 72 h of incubation, wild-type p53, second determination
Experimental: as §1, §2, §3

MCF-7 (breast cancer) = experiment: MTT cell viability assay, MCF-7; format: cell-based, human; settings: for IC50: MTT assay, 72 h of incubation
Procedure, shortened: (§4)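 Cells in DMEM with 10% FBS, 3 × 10^3 per well, exposed to compounds at 1–100 µM for 72 h at 37 °C. MTT at 0.5 mg/mL for 2 h, formazan dissolved in DMSO and read at 550 nm. Mean ± SD of at least three independent experiments, each in triplicate.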

[4] = tested on: HaCaT (human keratinocyte cell line); experiment: MTT cell viability assay, non-cancerous HaCaT; format: cell-based; settings: 72 h of incubation, non-cancerous keratinocytes
Procedure, shortened: as §4

[5] = tested on: A2780 (ovarian carcinoma cell line); experiment: MTT assay, wild-type p53 ovarian cancer cells A2780; format: cell-based
Experimental: as §1, §2, §3

HCT-116 (colon cancer) = experiment: MTT cell viability assay, HCT-116; format: cell-based, human; settings: for IC50: Homo sapiens, HCT-116, 72 h, MTT assay, 72 h of incubation
Procedure, shortened: (§5)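 HCT-116 and HeLa cells in DMEM/10% FBS exposed 72 h to compounds over 1–100 µM. Viability by MTT (0.5 mg/mL, 2 h, 37 °C), formazan dissolved in DMSO and read at 550 nm; mean ± SD of at least three independent experiments.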

HeLa (cervical cancer) = experiment: MTT cell viability assay, HeLa; format: cell-based, human; settings: for IC50: Homo sapiens, HeLa, MTT assay, 72 h of incubation
Procedure, shortened: as §5

HCT-116, MCF-7 and HeLa = experiment: MTT cytotoxicity, summary statements on all tested tumor cell lines together; format: cell-based, human; settings: MTT 72 h
Experimental: Compounds 20–162 were evaluated in vitro for their effects on the viability of three cancer cell lines: HCT-116 (colon cancer), MCF-7 (breast cancer) and HeLa (cervical cancer), as well as the non-cancerous keratinocyte cell line (HaCaT). […] Analysis was performed using an MTT assay after 72 h of incubation.
as §2

MDM2-p53 interactions = experiment: Western blot of MDM2 and p53 protein levels in MCF-7 cells; format: cell-based, human; settings: 4 µM and 10 µM, 24-h incubation
Experimental: Thus, the effects of the examined compounds on the inhibition of MDM2-p53 interactions were examined. MDM2 and p53 protein levels were determined with Western blot analysis after the treatment of MCF-7 cells with compounds selected for their high selectivity index (48, 62, 134, 138, and 140). Compounds were examined at different concentrations (4 µM and 10 µM) following a 24-h incubation (Figure 7).
Proteins were transferred to an Immobilon-P PVDF membrane (Merck Millipore, Burlington, MA, USA). The membranes were incubated for 1 h using 5% low-fat milk solution in 1× TBS (50 mM Tris-Cl, pH 7.5, 150 mM NaCl) as a blocking buffer and then overnight at 4 °C in the same blocking solution containing one of the following antibodies: anti-MDM2 (rabbit, Sigma-Aldrich AB-166, Burlington, MA, USA), anti-p53 (rabbit, Sigma-Aldrich S15) or α-tubulin (rabbit, 11H10, Cell Signaling, Danvers, MA, USA). After washing (3 × 10 min in TBS), membranes were incubated for 2 h in room temperature with the adequate HRP-conjugated secondary antibody: goat anti-rabbit IgG (1:5000, Abcam, Cambridge, UK; cat. 97051). Membranes were developed using an HRP detection kit WesternBright Quantum (Advansta, San Jose, CA, USA; cat. K-12042).

IC50 (HCT-116 (colon cancer)) | IC50 (HeLa (cervical cancer)) | IC50 (MCF-7 (breast cancer); Homo sapiens, MCF7, 72 h) | SMILES | IC50 ([4]; Homo sapiens, HaCaT, 72 h) | other results
 |  |  | N.N.[Cl][Pt][Cl] [cisplatin, reference compound] |  | IC50 ([1]; 72 h of incubation): 71 ± 0.1 µM; IC50 [2]: 3.1 ± 0.1 µM; IC50 [3]: 3 ± 0.1 µM; IC50 (MCF-7 (breast cancer)): 3 ± 0.1 µM; IC50 [4]: 7.7 ± 0.2 µM; IC50 ([5]; 72 h of incubation): 1400 ± 100 nM
168 ± 8 µM | 140 ± 7 µM | 153 ± 5 µM | Cc1cc(S(=O)(=O)N=C2NCCN2Cc2ccccc2)c(SCc2nc(N)nc(N3CCN(c4ccc([N+](=O)[O-])cc4)CC3)n2)cc1Cl [Compound 67] |  | cytotoxic activity for all tested cell lines (in words) (HCT-116, MCF-7 and HeLa): inactive; also recorded: loss of activity
155 ± 6 µM | 265 ± 8 µM | 205 ± 4 µM | Cc1ccc(S(=O)(=O)N2CCN(c3nc(N)nc(CSc4cc(Cl)c(C)cc4S(=O)(=O)N=C4NCCN4Cc4ccccc4)n3)CC2)cc1 [Compound 71] | 27 ± 1 µM | cytotoxic activity for all tested cell lines (in words) (HCT-116, MCF-7 and HeLa): loss of activity
6 ± 0.2 µM | 9 ± 0.6 µM | 9 ± 0.5 µM | Cc1cc(S(=O)(=O)N=C2NCCN2Cc2ccc(C(F)(F)F)cc2)c(SCc2nc(N)nc(N3CCN(c4ccc(Cl)c(Cl)c4)CC3)n2)cc1Cl [Compound 138] | 22 ± 1 µM | MDM2 and p53 protein levels (MDM2-p53 interactions): no changes; IC50 ([1]; Homo sapiens, SK-OV-3, 72 h of incubation): 5.8 ± 0.1 µM; IC50 ([2]; Homo sapiens, T47D): 4.4 ± 0.1 µM; IC50 ([3]; Homo sapiens, MCF7): 8.2 ± 0.1 µM; IC50 ([5]; Homo sapiens, A2780, 72 h of incubation): 2200 ± 100 nM
105 ± 4 µM | 115 ± 2 µM | 10 ± 0.5 µM | Cc1cc(S(=O)(=O)N=C2NCCN2Cc2ccc(C(F)(F)F)cc2)c(SCc2nc(N)nc(N(C)C)n2)cc1Cl [Compound 118] | > 500 µM | cytotoxic activity for all tested cell lines (in words) (HCT-116, MCF-7 and HeLa): inactive
6.5 ± 0.1 µM | 17 ± 0.5 µM | 9 ± 0.5 µM | Cc1cc(S(=O)(=O)N=C2NCCN2Cc2ccccc2)c(SCc2nc(N)nc(N3CCC(Cc4ccccc4)CC3)n2)cc1Cl [Compound 72] | 28 ± 1 µM | 
31 ± 1 µM | 30 ± 1.5 µM | 31 ± 2 µM | Cc1cc(S(=O)(=O)N=C2NCCN2)c(SCc2nc(N)nc(N3CCN(Cc4ccccc4)CC3)n2)cc1Cl [Compound 42] | 61 ± 4 µM | 
8 ± 0.4 µM | 17 ± 1 µM | 7.5 ± 0.4 µM | Cc1cc(S(=O)(=O)N=C2NCCN2Cc2ccc(Br)cc2)c(SCc2nc(N)nc(N3CCc4ccccc43)n2)cc1Cl [Compound 102] | 33 ± 1 µM | 
6.5 ± 0.3 µM | 15 ± 1 µM | 8 ± 0.2 µM | Cc1cc(S(=O)(=O)N=C2NCCN2Cc2cc(C(F)(F)F)cc(C(F)(F)F)c2)c(SCc2nc(N)nc(Nc3ccc(C(F)(F)F)cc3)n2)cc1Cl [Compound 147] | 28 ± 1 µM | 
7 ± 0.3 µM | 8 ± 0.4 µM | 7 ± 0.1 µM | Cc1cc(S(=O)(=O)N=C2NCCN2Cc2ccc(F)cc2)c(SCc2nc(N)nc(N3CCN(c4ccc(C(F)(F)F)cc4)CC3)n2)cc1Cl [Compound 95] | 18 ± 1 µM | 
11 ± 0.1 µM | 16 ± 0.2 µM | 12 ± 0.1 µM | Cc1cc(S(=O)(=O)N=C2NCCN2Cc2ccccc2)c(SCc2nc(N)nc(N(C)c3ccccc3)n2)cc1Cl [Compound 54] | 28 ± 1 µM | 
14 ± 0.1 µM | 24 ± 0.5 µM | 17 ± 0.3 µM | Cc1cc(S(=O)(=O)N=C2NCCN2Cc2ccccc2)c(SCc2nc(N)nc(N3CCCc4ccccc43)n2)cc1Cl [Compound 49] | 38 ± 1 µM | 
170 ± 3 µM | 153 ± 5 µM | 145 ± 7 µM | Cc1cc(S(=O)(=O)N=C2NCCN2)c(SCc2nc(N)nc(N3CCN(C)CC3)n2)cc1Cl [Compound 30] |  | cytotoxic activity for all tested cell lines (in words) (HCT-116, MCF-7 and HeLa): inactive
300 ± 18 µM | 550 ± 21 µM | 490 ± 10 µM | Cc1cc(S(=O)(=O)N=C2NCCN2Cc2ccccc2)c(SCc2nc(N)nc(N3CCN(S(=O)(=O)c4ccccc4)CC3)n2)cc1Cl [Compound 70] |  | cytotoxic activity for all tested cell lines (in words) (HCT-116, MCF-7 and HeLa): loss of activity
11 ± 0.4 µM | 15 ± 1 µM | 14 ± 0.5 µM | Cc1cc(S(=O)(=O)N=C2NCCN2Cc2ccccc2)c(SCc2nc(N)nc(N3CCN(c4ccc(Cl)c(Cl)c4)CC3)n2)cc1Cl [Compound 64] | 28 ± 1 µM | 
33 ± 2 µM | 34 ± 1 µM | 33 ± 1 µM | Cc1cc(S(=O)(=O)N=C2NCCN2)c(SCc2nc(N)nc(Nc3ccc(F)cc3)n2)cc1Cl [Compound 26] | 45 ± 2 µM | 
19 ± 0.4 µM | 34 ± 1 µM | 22 ± 0.2 µM | Cc1cc(S(=O)(=O)N=C2NCCN2Cc2ccccc2)c(SCc2nc(N)nc(N(C)C)n2)cc1Cl [Compound 45] | 43 ± 2 µM | 
8 ± 0.1 µM | 102 ± 2 µM | 8 ± 0.2 µM | Cc1cc(S(=O)(=O)N=C2NCCN2Cc2ccccc2)c(SCc2nc(N)nc(N3CCN(c4ccccc4)CC3)n2)cc1Cl [Compound 57] | 48 ± 2 µM | 
8.4 ± 0.3 µM | 63 ± 1 µM | 8 ± 0.5 µM | Cc1cc(S(=O)(=O)N=C2NCCN2Cc2cccc3ccccc23)c(SCc2nc(N)nc(N3CCN(Cc4ccccc4)CC3)n2)cc1Cl [Compound 81] | 240 ± 12 µM | 
18 ± 0.2 µM | 35 ± 2 µM | 43 ± 1 µM | Cc1cc(S(=O)(=O)N=C2NCCN2Cc2ccccc2)c(SCc2nc(N)nc(Nc3ccccc3)n2)cc1Cl [Compound 50] | 51 ± 2 µM | 
7 ± 0.1 µM | 13 ± 0.1 µM | 10 ± 0.2 µM | Cc1cc(S(=O)(=O)N=C2NCCN2Cc2ccccc2)c(SCc2nc(N)nc(N(C)c3ccc(Cl)cc3)n2)cc1Cl [Compound 55] | 39 ± 2 µM | Selectivity Index (SI) HCT-116 (HCT-116 (colon cancer); IC50 value toward HaCaT cells/IC50 value toward HCT-116): 5.5; Selectivity Index (SI) HeLa (HeLa (cervical cancer); IC50 value toward HaCaT cells/IC50 value toward HeLa): 3.0; Selectivity Index (SI) MCF-7 (MCF-7 (breast cancer); IC50 value toward HaCaT cells/IC50 value toward MCF-7): 3.9
5.5 ± 0.2 µM | 12 ± 1 µM | 6.5 ± 0.2 µM | Cc1cc(S(=O)(=O)N=C2NCCN2Cc2cccc(C(F)(F)F)c2)c(SCc2nc(N)nc(N3CCN(c4ccc(Cl)c(Cl)c4)CC3)n2)cc1Cl [Compound 115] | 23 ± 0.5 µM | 
10.5 ± 0.5 µM | 11 ± 0.5 µM | 11 ± 0.5 µM | Cc1cc(S(=O)(=O)N=C2NCCN2Cc2ccc(Br)cc2)c(SCc2nc(N)nc(N3CCN(c4cccc(C(F)(F)F)c4)CC3)n2)cc1Cl [Compound 108] | 24 ± 1 µM | 
25 ± 0.5 µM | 32 ± 0.3 µM | 24 ± 0.2 µM | Cc1cc(S(=O)(=O)N=C2NCCN2)c(SCc2nc(N)nc(N(C)c3ccc(Cl)cc3)n2)cc1Cl [Compound 29] | 43 ± 2 µM | 
15 ± 0.5 µM | 21 ± 4 µM | 23 ± 1 µM | Cc1cc(S(=O)(=O)N=C2NCCN2Cc2ccc(F)cc2)c(SCc2nc(N)nc(Nc3ccccc3)n2)cc1Cl [Compound 85] | 38 ± 1 µM | 
